This is an account of results in patent publication US20230131899A1, “INHIBITORS OF MICROBIALLY INDUCED AMYLOID” (Axial Therapeutics, Inc., priority 2020, published 2023).

Where two headings read alike, the source gives them in different places.

The assay deals with T1, E. coli CsgA (Escherichia coli, UniProt P28307).
T1 construct: made in house; host or cells: E. coli NEB 3016 slyD::kan, pET11d
Kind of assay: In vitro ThioflavinT assay of CsgA aggregation (CsgA ThT Assay). The assay is classed as biochemical. The note with it: for remaining activity at 25 µM: compound 25 μM. An outline of the steps: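 Purified C-terminal His-tagged CsgA, monomerised by desalting and 30-kDa filtration, at 2-20 μM with 20-40 μM ThT in 50 mM potassium phosphate pH 7.3, 1% DMSO, compounds 3.125-200 uM; room temperature, fluorescence (ex 438/em 495 nm) read every 15 min. Background-subtracted signal expressed as percent inhibition versus vehicle at 6-6.5 or 8-9 h, or as percent control AUC.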

Where [1] appears, read: read-out: CsgA ThT Assay (2 μM CsgA) % Control Bmax 25 μM, activity range, class symbol, CsgA 2 μM, white plates.
[2] abbreviates: read-out: CsgA ThT Assay (2 μM CsgA) % Control Bmax 25 μM, mean Bmax as percentage of DMSO control, CsgA 2 μM, white plates.
Setting [3] is: read-out: CsgA ThT Assay (2 μM CsgA) % Control Bmax 100 μM, activity range, class symbol, CsgA 2 μM, white plates, compound 100 μM.
The mark [4] stands for this setting: read-out: CsgA ThT Assay (2 μM CsgA) % Control Bmax 100 μM, mean Bmax as percentage of DMSO control, CsgA 2 μM, white plates, compound 100 μM.
The mark [5] stands for this setting: read-out: CsgA ThT Assay (10 μM CsgA) % Control AUC at 1005 minutes, 25 μM (activity range), CsgA 10 μM, black plates, 1005 minutes, class symbol.
Where [6] appears, read: read-out: CsgA ThT Assay (10 μM CsgA) % Control AUC at 1005 minutes, 25 μM, mean AUC as % of DMSO control, CsgA 10 μM, black plates, 1005 minutes.
Where [7] appears, read: read-out: CsgA ThT Assay (10 μM CsgA) % Control AUC at 1005 minutes, 100 μM (activity range), CsgA 10 μM, black plates, compound 100 μM, 1005 minutes, class symbol.
Where [8] appears, read: read-out: CsgA ThT Assay (10 μM CsgA) % Control AUC at 1005 minutes, 100 μM, mean AUC as % of DMSO control, CsgA 10 μM, black plates, compound 100 μM, 1005 minutes.

T1 sequence (P28307 23-151): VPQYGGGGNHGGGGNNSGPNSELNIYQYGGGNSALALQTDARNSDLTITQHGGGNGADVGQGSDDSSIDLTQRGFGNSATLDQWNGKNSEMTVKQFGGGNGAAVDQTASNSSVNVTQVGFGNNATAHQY

As to `CCCN1CC(C(=O)O)n2c(c(-c3cccc(C(F)(F)F)c3)c(Cc3cccc4ccccc34)c(NC(=O)CC)c2=O)S1(=O)=O` (centres unmarked) [Compound 153, 8-(naphthalen-1-ylmethyl)-6-oxo-7-propionamido-2-propyl-9-(3-(trifluoromethyl)phenyl)-3,4-dihydro-2H,6H-pyrido[1,2-e][1,2,5]thiadiazine-4-carboxylic acid 1,1-dioxide], the remaining activity at 25 µM by setting is: under setting [1], greater than 60%; under setting [2], 91%. Also, the remaining activity at 100 µM under setting [3] is greater than 60% and the remaining activity at 100 µM under setting [4] came out at 83%.
Turning to `O=C(O)C1CN(C[C@H](O)CO)S(=O)(=O)c2c(-c3cccc(C(F)(F)F)c3)c(Cc3cccc4ccccc34)cc(=O)n21` (stereo partly drawn) [Compound 065a, 2-((S)-2,3-dihydroxypropyl)-8-(naphthalen-1-ylmethyl)-6-oxo-9-(3-(trifluoromethyl)phenyl)-3,4-dihydro-2H,6H-pyrido[1,2-e][1,2,5]thiadiazine-4-carboxylic acid 1,1-dioxide], the remaining activity at 25 µM runs as follows: under setting [5], greater than 60%; under setting [6], 65%. Besides, the remaining activity at 100 µM runs as follows: under setting [7], 11 to 31%; under setting [8], 18%.
With `O=C(O)C1CN(Cc2ccncc2)c2c(-c3cccc(C(F)(F)F)c3)c(Cc3cccc4ccccc34)c(Cl)c(=O)n21` (centres unmarked) [Compound 174, 6-chloro-7-(naphthalen-1-ylmethyl)-5-oxo-1-(pyridin-4-ylmethyl)-8-(3-(trifluoromethyl)phenyl)-1,2,3,5-tetrahydroimidazo[1,2-a]pyridine-3-carboxylic acid], the remaining activity at 25 µM reads like this: under setting [1], greater than 60%; under setting [2], 77%. Besides, the remaining activity at 100 µM is 31 to 60% under setting [3] and 60% under setting [4].
For the compound `CCCCCN1CC(C(=O)O)n2c(c(-c3cccc(C(F)(F)F)c3)c(Cc3cccc4ccccc34)cc2=O)S1(=O)=O` (single isomer, unassigned) [Compound 025a, 8-(naphthalen-1-ylmethyl)-6-oxo-2-pentyl-9-(3-(trifluoromethyl)phenyl)-3,4-dihydro-2H,6H-pyrido[1,2-e][1,2,5]thiadiazine-4-carboxylic acid 1,1-dioxide], the “CsgA ThT Assay (10 μM CsgA) % Control AUC at 1005 minutes, 100 μM” value (mean AUC as % of DMSO control, CsgA 10 μM, black plates, compound 100 μM, 1005 minutes) came to 143%. Also, the remaining activity at 25 µM under setting [5] was in the range of 31 to 60% and the remaining activity at 25 µM under setting [6] came to 38%. In addition, the remaining activity at 100 µM under setting [7] was greater than 60%.
`O=C(O)C1n2c(c(-c3cccc(C(F)(F)F)c3)c(Cc3cccc4ccccc34)nc2=O)SC12CCCC2` (centres unmarked) [Compound 053, 7′-(naphthalen-1-ylmethyl)-5′-oxo-8′-(3-(trifluoromethyl)phenyl)-3′H,5′H-spiro[cyclopentane-1,2′-thiazolo[3,2-c]pyrimidine]-3′-carboxylic acid]: the remaining activity at 25 µM by setting is: under setting [5], 31 to 60%; under setting [6], 39%. Besides, the remaining activity at 100 µM under setting [7] lay in the range of 11 to 31% and the remaining activity at 100 µM under setting [8] worked out at 12%.
As for `Cn1c(=O)c2c(nc(CCCCCN3CC(C(=O)O)n4c(c(-c5cccc(C(F)(F)F)c5)c(Cc5cccc6ccccc56)cc4=O)S3(=O)=O)n2C)n(C)c1=O` (centres unmarked) [Compound 045, 8-(naphthalen-1-ylmethyl)-6-oxo-9-(3-(trifluoromethyl)phenyl)-2-(5-(1,3,7-trimethyl-2,6-dioxo-2,3,6,7-tetrahydro-1H-purin-8-yl)pentyl)-3,4-dihydro-2H,6H-pyrido[1,2-e][1,2,5]thiadiazine-4-carboxylic acid 1,1-dioxide], the remaining activity at 25 µM by setting is: under setting [5], 31 to 60%; under setting [6], 59%. In addition, the remaining activity at 100 µM under setting [7] is 31 to 60% and the remaining activity at 100 µM under setting [8] worked out at 53%.
`CCCN1CC(C(=O)O)n2c(c(-c3cccc(C(F)(F)F)c3)c(Cc3cccc4ccccc34)c(Cl)c2=O)S1(=O)=O` (centres unmarked) [Compound 142, 7-chloro-8-(naphthalen-1-ylmethyl)-6-oxo-2-propyl-9-(3-(trifluoromethyl)phenyl)-3,4-dihydro-2H,6H-pyrido[1,2-e][1,2,5]thiadiazine-4-carboxylic acid 1,1-dioxide]: the remaining activity at 25 µM runs as follows: under setting [1], greater than 60%; under setting [2], 87%. For the same compound, the remaining activity at 100 µM under setting [3] was greater than 60% and the remaining activity at 100 µM under setting [4] was 121%.
Consider `O=C(O)C1CN(C[C@H](O)[C@@H](O)[C@H](O)[C@H](O)CO)S(=O)(=O)c2c(-c3cccc(C(F)(F)F)c3)c(Cc3cccc4ccccc34)cc(=O)n21` (mixture of isomers) [Compound 066, 8-(naphthalen-1-ylmethyl)-6-oxo-2-((2S,3R,4R,5R)-2,3,4,5,6-pentahydroxyhexyl)-9-(3-(trifluoromethyl)phenyl)-3,4-dihydro-2H,6H-pyrido[1,2-e][1,2,5]thiadiazine-4-carboxylic acid 1,1-dioxide], for which the remaining activity at 25 µM reads like this: under setting [5], greater than 60%; under setting [6], 88%. Moreover, the remaining activity at 100 µM is, setting by setting: under setting [7], 11 to 31%; under setting [8], 29%.
Consider `CCc1c(Cc2cccc3ccccc23)c(-c2cccc(C(F)(F)F)c2)c2n(c1=O)C(C(=O)O)CN2Cc1ccc(OC)cc1` (centres unmarked) [Compound 161, 6-ethyl-1-(4-methoxybenzyl)-7-(naphthalen-1-ylmethyl)-5-oxo-8-(3-(trifluoromethyl)phenyl)-1,2,3,5-tetrahydroimidazo[1,2-a]pyridine-3-carboxylic acid], for which the remaining activity at 25 µM was 31 to 60% under setting [1] and 54% under setting [2]. Besides, the remaining activity at 100 µM under setting [3] was in the range of 11 to 31% and the remaining activity at 100 µM under setting [4] came out at 29%.
As for `Cn1c(=O)c2c(nc(CCCCCCN3CC(C(=O)O)n4c(c(-c5cccc(C(F)(F)F)c5)c(Cc5cccc6ccccc56)cc4=O)S3(=O)=O)n2C)n(C)c1=O` (centres unmarked) [Compound 046, 8-(naphthalen-1-ylmethyl)-6-oxo-9-(3-(trifluoromethyl)phenyl)-2-(6-(1,3,7-trimethyl-2,6-dioxo-2,3,6,7-tetrahydro-1H-purin-8-yl)hexyl)-3,4-dihydro-2H,6H-pyrido[1,2-e][1,2,5]thiadiazine-4-carboxylic acid 1,1-dioxide], the remaining activity at 25 µM by setting is: under setting [5], 31 to 60%; under setting [6], 55%. Besides, the remaining activity at 100 µM under setting [7] lay in the range of 31 to 60% and the remaining activity at 100 µM under setting [8] was determined as 55%.
Turning to `O=C(O)C1CN(Cc2ccccc2)c2c(-c3cccc(C(F)(F)F)c3)c(C(F)(F)c3cccc4ccccc34)c(Br)c(=O)n21` (centres unmarked) [Compound 155, 1-benzyl-6-bromo-7-(difluoro(naphthalen-1-yl)methyl)-5-oxo-8-(3-(trifluoromethyl)phenyl)-1,2,3,5-tetrahydroimidazo[1,2-a]pyridine-3-carboxylic acid], the remaining activity at 25 µM under setting [1] is 31 to 60% and the remaining activity at 25 µM under setting [2] came to 57%. Besides, the remaining activity at 100 µM runs as follows: under setting [3], greater than 60%; under setting [4], 112%.
For `CNC(=O)CCCCN1CC(C(=O)O)n2c(c(-c3cccc(C(F)(F)F)c3)c(Cc3cccc4ccccc34)cc2=O)S1(=O)=O` (centres unmarked) [Compound 038, 2-(5-(methylamino)-5-oxopentyl)-8-(naphthalen-1-ylmethyl)-6-oxo-9-(3-(trifluoromethyl)phenyl)-3,4-dihydro-2H,6H-pyrido[1,2-e][1,2,5]thiadiazine-4-carboxylic acid 1,1-dioxide], the remaining activity at 25 µM reads like this: under setting [5], greater than 60%; under setting [6], 86%. The remaining activity at 100 µM runs as follows: under setting [7], 11 to 31%; under setting [8], 25%.
As for `CCc1c(Cc2cccc3ccccc23)c(-c2cccc(C(F)(F)F)c2)c2n(c1=O)C(C(=O)O)CN2Cc1ccccc1` (centres unmarked) [Compound 140, 1-benzyl-6-ethyl-7-(naphthalen-1-ylmethyl)-5-oxo-8-(3-(trifluoromethyl)phenyl)-1,2,3,5-tetrahydroimidazo[1,2-a]pyridine-3-carboxylic acid], the remaining activity at 25 µM is, setting by setting: under setting [1], 31 to 60%; under setting [2], 35%. Further, the remaining activity at 100 µM by setting is: under setting [3], 11 to 31%; under setting [4], 19%.
Take `O=C(O)c1c(-c2ccccc2)sc2c(-c3cccc(C(F)(F)F)c3)c(Cc3cccc4ccccc34)cc(=O)n12` [Compound 051, 7-(naphthalen-1-ylmethyl)-5-oxo-2-phenyl-8-(3-(trifluoromethyl)phenyl)-5H-thiazolo[3,2-a]pyridine-3-carboxylic acid]: the remaining activity at 25 µM by setting is: under setting [5], greater than 60%; under setting [6], 81%. The remaining activity at 100 µM by setting is: under setting [7], 31 to 60%; under setting [8], 54%.
